Molecular target: Sigma non-opioid intracellular receptor 1 (Rattus norvegicus) (UniProt Q9R0C9)
Experiment: Ratio of the binding affinity against Sigma receptor type 2 to that of Sigma receptor type 1

Sigma non-opioid intracellular receptor 1 (Rattus norvegicus), sequence (Q9R0C9 whole entry): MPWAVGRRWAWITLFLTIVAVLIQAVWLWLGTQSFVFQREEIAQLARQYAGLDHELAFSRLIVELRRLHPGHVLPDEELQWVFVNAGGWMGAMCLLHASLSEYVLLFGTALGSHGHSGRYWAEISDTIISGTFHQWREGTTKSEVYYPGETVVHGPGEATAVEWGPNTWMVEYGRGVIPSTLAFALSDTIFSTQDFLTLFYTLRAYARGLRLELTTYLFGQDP

Structure (SMILES) | Ratio
CC1C2Cc3cc(Br)c(O)cc3C1(C)CCN2Cc1ccccc1 (stereo unspecified) | 18
CC1C2Cc3cc(Cl)c(O)c(Cl)c3C1(C)CCN2Cc1ccccc1 (stereo unspecified) | 30
CC1C2Cc3ccc(O)cc3C1(C)CCN2Cc1ccccc1 (stereo unspecified) | 2600
CC(C)=CCN1CCC2(C)c3c(cc(Br)c(O)c3Br)CC1C2C (single isomer, unassigned; (+)) | 1.8
CC(C)=CCN1CCC2(C)c3cc(O)c(Br)cc3CC1C2C (single isomer, unassigned; (+)) | 3.2
CC1C2Cc3cc(Br)c(O)c(Br)c3C1(C)CCN2Cc1ccccc1 (single isomer, unassigned; (+)) | 28
CC1C2Cc3ccc(O)c(Br)c3C1(C)CCN2Cc1ccccc1 (single isomer, unassigned; (+)) | 200
CC1C2Cc3ccc(O)c(Cl)c3C1(C)CCN2Cc1ccccc1 (single isomer, unassigned; (+)) | 440
CC(C)=CCN1CCC2(C)c3cc(O)c(Br)cc3CC1C2C (single isomer, unassigned; (-)) | 1.9
CC(C)=CCN1CCC2(C)c3cc(O)c(I)cc3CC1C2C (stereo in doubt; (+)-5b) | 0.24
CC(C)=CCN1CCC2(C)c3cc(O)c(I)cc3CC1C2C (stereo in doubt; (-)-5b) | 2.7

From ChEMBL document CHEMBL1128494, “Synthesis and sigma binding properties of 1'- and 3'-halo- and 1',3'-dihalo-N-normetazocine analogues” (J Med Chem, 1995)
